Assay results published in patent US7504517B2, “Kv1.5 potassium channel inhibitors” (Wyeth, priority 2006, dated 2009).

Experiments:
L-type calcium channels = experiment: FLIPR L-Type Calcium Channel Assay; assay type: cell-based, murine; conditions: HL-1 cells expressing endogenous L-type calcium channels; calcium influx after 20 mM KCl; read-out: L-type Ca^2+ IC50
Description: 50 μL per well test compounds are added to the plates and further incubated for 15 min. in a 5% CO2 37° C. incubator. All final solutions contain the anion exchange inhibitor, probenecid (2.5 mM). The 96-well plates are then placed in the center position of the FLIPR 1 (Fluorometric Imaging Plate Reader, Molecular Devices Corporation). Cell monolayers in each well are simultaneously illuminated at 488 nm with an Argon ion laser, and fluorescence emission is monitored using a 510-570 nm bandpass filter and a cooled CCD camera. To depolarize the plasma membrane and activate L-type calcium channels, 50 μL per well of 20 mM KCl (final concentration) are dispensed simultaneously to all 96 wells using the FLIPR's automatic 96-well pipettor. Fluorescence measurements are captured for 5 min. following KCl addition. Calcium influx, expressed as % control, is calculated for each concentration of test compound and concentration-response curves and IC50 values are generated using GraphPad Prism 4.0.

HERG = HERG (Homo sapiens, UniProt Q12809); experiment: HERG Patch Clamp EP; conditions: for inhibition at 10 µM: human, HEK cells stably overexpressing HERG
Description: HERG currents are recorded by the whole cell mode of patch clamp electrophysiology as described by Hamill et al.^3 HERG is stably over expressed in HEK cells. Microelectrodes are pulled from borosilicate glass (TW150) and heat polished (tip resistance, 1.5 to 3 megaohms). The external solution is standard Tyrodes solution. The internal (microelectrode) solution contained: 110 mM KCl, 5 mM K2ATP, 5 mM K4BAPTA, 1 mM MgCl2 and 10 mM HEPES, adjusted to pH 7.2 with KOH. […] Compounds are prepared as 10-20 mM DMSO stocks and diluted to appropriate test concentrations. […] Inhibition of HERG is measured at the peak of the tail currents and expressed relative to controls. Initial HERG activity is estimated by single point determinations run at 10 μM. Concentration response curves are generated for appropriate compounds utilizing at least four concentrations and an n=3. Curve fitting and IC50 estimating are done using Graphpad software (Ver. 4). • 1.

Kv1.5 = target: T1, Kv1.5 (Homo sapiens, UniProt P22460); experiment: Kv1.5 Patch Clamp EP; assay type: cell-based; conditions: whole cell patch clamp; for IC50: HEK or LTK- cells, at least four concentrations, n=3
T1 construct: expressed in transfected cells; host or cells: HEK or LTK- cells
Description: The external solution is standard Tyrodes solution. […] Inhibition was measured at the end of the 1 second pulses and expressed relative to controls. Initial Kv1.5 inhibition is estimated by single point determinations done at 1 μM.

[1] = 1.0 μM, single point, Kv1.5 stably over expressed in HEK or LTK- cells

Sequence of HERG (Q12809 whole entry): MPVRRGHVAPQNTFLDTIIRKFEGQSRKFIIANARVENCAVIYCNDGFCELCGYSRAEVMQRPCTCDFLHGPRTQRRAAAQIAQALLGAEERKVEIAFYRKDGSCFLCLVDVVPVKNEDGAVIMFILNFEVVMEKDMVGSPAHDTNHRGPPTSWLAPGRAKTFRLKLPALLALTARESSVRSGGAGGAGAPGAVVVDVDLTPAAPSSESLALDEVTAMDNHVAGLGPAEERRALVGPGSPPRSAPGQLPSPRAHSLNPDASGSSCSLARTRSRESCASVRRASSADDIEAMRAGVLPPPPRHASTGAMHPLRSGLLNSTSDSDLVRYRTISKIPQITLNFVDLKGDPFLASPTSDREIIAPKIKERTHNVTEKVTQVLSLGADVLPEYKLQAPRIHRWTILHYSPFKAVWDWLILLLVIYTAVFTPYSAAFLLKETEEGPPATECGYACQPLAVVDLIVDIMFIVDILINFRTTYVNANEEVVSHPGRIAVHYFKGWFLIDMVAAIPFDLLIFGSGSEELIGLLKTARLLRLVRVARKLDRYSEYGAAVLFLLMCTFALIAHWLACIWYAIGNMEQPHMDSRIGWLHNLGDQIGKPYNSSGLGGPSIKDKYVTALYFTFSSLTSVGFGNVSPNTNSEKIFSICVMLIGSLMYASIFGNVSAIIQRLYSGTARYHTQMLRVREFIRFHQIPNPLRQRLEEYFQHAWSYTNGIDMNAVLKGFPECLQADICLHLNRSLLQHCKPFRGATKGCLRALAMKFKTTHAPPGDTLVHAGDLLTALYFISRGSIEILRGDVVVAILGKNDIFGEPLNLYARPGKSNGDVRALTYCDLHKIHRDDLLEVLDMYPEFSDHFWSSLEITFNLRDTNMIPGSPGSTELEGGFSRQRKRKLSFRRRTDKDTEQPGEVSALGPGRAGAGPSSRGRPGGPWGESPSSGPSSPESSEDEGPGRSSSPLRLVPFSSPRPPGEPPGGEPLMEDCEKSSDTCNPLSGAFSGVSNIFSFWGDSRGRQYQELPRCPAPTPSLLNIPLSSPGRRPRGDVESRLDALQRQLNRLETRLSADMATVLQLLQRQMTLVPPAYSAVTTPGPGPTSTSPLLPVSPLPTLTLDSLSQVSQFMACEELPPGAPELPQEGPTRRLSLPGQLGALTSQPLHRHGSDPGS
T1 sequence (P22460 whole entry): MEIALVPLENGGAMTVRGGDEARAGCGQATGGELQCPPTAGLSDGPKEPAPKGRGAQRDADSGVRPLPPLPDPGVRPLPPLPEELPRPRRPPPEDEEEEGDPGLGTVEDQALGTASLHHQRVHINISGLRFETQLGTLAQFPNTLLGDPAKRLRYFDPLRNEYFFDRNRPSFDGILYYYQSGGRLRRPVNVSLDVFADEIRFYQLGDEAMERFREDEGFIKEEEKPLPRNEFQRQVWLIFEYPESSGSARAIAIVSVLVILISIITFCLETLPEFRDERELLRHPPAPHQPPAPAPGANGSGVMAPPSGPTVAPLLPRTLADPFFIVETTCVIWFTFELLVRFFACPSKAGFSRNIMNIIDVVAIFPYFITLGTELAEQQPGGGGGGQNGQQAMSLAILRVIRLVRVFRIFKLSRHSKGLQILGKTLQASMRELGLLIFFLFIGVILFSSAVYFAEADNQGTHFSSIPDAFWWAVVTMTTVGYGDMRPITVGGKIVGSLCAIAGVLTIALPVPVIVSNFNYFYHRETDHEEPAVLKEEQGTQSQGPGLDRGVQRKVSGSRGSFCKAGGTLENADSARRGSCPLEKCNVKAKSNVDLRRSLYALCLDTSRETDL

Row | SMILES | IC50 (L-type calcium channels) [µM] | IC50 (HERG) [µM] | inhibition at 10 µM (HERG) [%] | inhibition at 1 µM (Kv1.5; [1]) [%] | IC50 (Kv1.5) [µM] | HERG % Inhib. @ 10 μM (HERG; 10 μM, single point, whole cell patch clamp, HERG stably over expressed in HEK cells, peak tail current) [%] | Kv1.5% inhibition @ 1.0 μM (Kv1.5; [1]) [%]
1 | COc1ccc(CCN2C(=O)N(NS(C)(=O)=O)CC2c2ccc(C3CC3)cc2)cc1 (stereo not drawn) [Compound 28, 1-[(Methylsulfonyl)amino]-3-[(4-methoxyphenyl)ethyl]-4-(4-cyclopropylphenyl)-2-imidazolidinone] | 16 | 10.3 | 30 | 89 | 0.184 | – | –
2 | COc1ccc(CCN2C(=O)N(NS(C)(=O)=O)CC2c2ccc(C)cc2)cc1 (stereo not drawn) [Compound 20, 1-(Methylsulfonylamino)-3-[(4-methoxyphenyl)ethyl]-4-(4-methylphenyl)-2-imidazolidinone] | 30 | – | 15 | 73 | – | – | –
3 | COc1ccc(CCN2C(=O)N(NS(C)(=O)=O)C[C@H]2c2ccc(OC(F)F)cc2)cc1 [Compound 170, N-{(4R)-4-[4-(difluoromethoxy)phenyl]-3-[2-(4-methoxyphenyl)ethyl]-2-oxoimidazolidin-1-yl}methanesulfonamide] | 30 | – | 62 | 49 | – | – | –
4 | COc1ccc(CCCN2C(=O)N(N)CC2c2ccc(C(C)(C)C)cc2)cc1 (stereo not drawn) [Compound 119, 1-amino-4-(4-tert-butylphenyl)-3-[3-(4-methoxyphenyl)propyl]imidazolidin-2-one] | 2 | – | 70 | 80 | – | – | –
5 | COc1ccc(CCN2C(=O)N(NS(C)(=O)=O)CC2c2ccc(C)c(OC)c2)cc1 (stereo not drawn) [Compound 13, 1-(Methylsulfonylamino)-3-[2-(4-methoxyphenyl)ethyl]-4-[(3-methoxy-4-methyl)phenyl]-2-imidazolidinone] | 27 | – | 10 | 83 | – | – | –
6 | COc1ccc(CCCN2C(=O)N(NS(C)(=O)=O)CC2c2ccc(C3CC3)cc2)cc1 (stereo not drawn) [Compound 48, 1-(Methylsulfonylamino)-3-[3-(4-methoxyphenyl)propyl]-4-[(4-cyclopropyl)-phenyl]-2-imidazolidinone] | 9 | 3.6 | 70 | 96 | 0.231 | – | –
7 | COc1ccc(CCN2C(=O)N(NCc3ccncc3)CC2c2ccc(C)c(C)c2)cc1 (stereo not drawn) [Compound 84, 4-(3,4-Dimethylphenyl)-3-[2-(4-methoxyphenyl)ethyl]-1-[(pyridin-4-ylmethyl)amino]-imidazolidin-2-one] | 10 | – | 73 | 67 | 0.57 | – | –
8 | COc1ccc(CCCN2C(=O)N(NS(=O)(=O)CC(N)=O)CC2c2ccc(C3CC3)cc2)cc1 (stereo not drawn) [Compound 104, 1-[(2-Amino-2-oxoethyl)sulfonylamino]-3-[3-(4-methoxyphenyl)propyl]-4-(4-cyclopropylphenyl)-2-imidazolidinone] | 21 | – | 56 | 87 | – | – | –
9 | COc1ccc(CCN2C(=O)N(NS(C)(=O)=O)CC2c2ccc(OC(F)(F)F)cc2)cc1 (stereo not drawn) [Compound 27, 1-[(Methylsulfonyl)amino]-3-[2-(4-methoxyphenyl)ethyl]-4-(4-trifluoro-methoxyphenyl)-2-imidazolidinone] | 19 | – | – | – | – | 63 | 56
10 | COc1ccc(CCN2C(=O)N(NS(=O)(=O)CC(N)=O)CC2c2ccc(C3CC3)cc2)cc1 (stereo not drawn) [Compound 52, 1-[(2-Amino-2-oxoethyl)sulfonylamino]-3-[2-(4-methoxyphenyl)ethyl]-4-(4-cyclopropylphenyl)-2-imidazolidinone] | 16 | – | 29 | 80 | – | – | –
11 | COc1ccc(CCN2C(=O)N(NS(=O)(=O)Cc3cccnc3)CC2c2ccc(OC)cc2)cc1 (stereo not drawn) [Compound 66, 1-[(Pyridin-3-yl)methylsulfonyl]amino-3-[2-(4-methoxyphenyl)ethyl]-4-(4-methoxyphenyl)-2-imidazolidinone] | 30 | 12.6 | – | 86 | 0.257 | – | –
